Key:
LLC cells [1] = experiment: Tumor volume, combination of soybean PC and 5-FU, LLC cancer-bearing mice (Example 12); format: in vivo, mouse; conditions: soybean PC 3 mg/kg i.v. daily day 7 to 20, 5-FU 20 mg/kg i.p. day 7 and 14, volume to day 21
Procedure: LLC cells (1×10^6 cells in 100 μL of PBS per animal) were subcutaneously injected into C57BL/6NCrSlc mice aged 8 weeks (females, SLC, Inc.) to generate cancer-bearing mice. The mice were assigned to 4 groups: a soybean PC group, a 5-FU group, a soybean PC plus 5-FU group, and a control group (vehicle administration group) (3 animals per group). For the soybean PC group and the soybean PC plus 5-FU group, in the same manner as in Example 1, 3 mg/kg (100 μL) of the soybean PC was administered once daily via the mouse tail vein for […] from day 7 to day 20 post-cancer cell inoculation. For the 5-FU group and the soybean PC plus 5-FU group, 5-FU (Kyowa Hakko Kirin Co., Ltd.) was intraperitoneally administered at a dose of 20 mg/kg on day 7 and day 14 post-cancer cell inoculation. Tumor volume was measured on day 7, day 14 and day 21 post-cancer cell inoculation. The tumor volume was calculated by the following formula: length×width×height×0.5.

LLC cells [2] = experiment: Various phosphatidylcholines: intratumoral lymphocyte infiltration, LLC cancer-bearing mice (Example 9); format: in vivo, mouse; conditions: LLC tumor; PC 3 mg/kg i.v. once daily day 7 to 13; harvested day 14; CD4- and CD8-positive cells
Description: The PCs of Group A were dioctanoyl phosphatidylcholine (Avanti POLAR LIPIDS), dimyristoyl phosphatidylcholine (Nippon Fine Chemical), distearoyl phosphatidylcholine (Nippon Fine Chemical), dioleoyl phosphatidylcholine (Nippon Fine Chemical) and dilinoleoyl phosphatidylcholine (Avanti POLAR LIPIDS). The PCs of Group B were (1-palmitoyl-2-myristoyl) phosphatidylcholine (Avanti POLAR LIPIDS) and (1-palmitoyl-2-oleoyl) phosphatidylcholine (Avanti POLAR LIPIDS).
In the same manner as in Example 1, LLC cells ([…] cells in 100 μL of PBS per animal) were subcutaneously injected into C57BL/6NCrSlc mice aged 8 weeks (females, SLC, Inc.) to generate cancer-bearing mice. For 7 consecutive days from day 7 to day 13 post-cancer cell inoculation, the PCs indicated above were administered at a dose of 3 mg/kg (100 μL) once daily via the mouse tail vein. The vehicle was administered to the mice of the control group. On the day following the final administration (day 14 post-inoculation), the tumors were harvested from the mice. In the same manner as in Example 1, tumor tissue sections were prepared, tumor vasculature was observed, and intratumoral lymphocyte infiltration was examined.

[3] = test system: human umbilical vein endothelial cells (HUVECs); experiment: Tubulogenesis of cultured HUVECs on Matrigel with VEGF (Examples 13 and 14); format: cell-based; conditions: HUVEC on Matrigel, Example 14
Procedure: Each well of a 48-well plate was coated with 200 μL of Matrigel (BD biosciences), and human umbilical vein endothelial cells (HUVECs; Kurabo Industries Ltd.) were seeded at 5×10^4 cells/200 μL/well and cultured. For the culture, HuMedia-EB2 medium (Kurabo Industries, Ltd.) supplemented with 1% FCS was used. VEGF (recombinant human VEGF165, Peprotech) was added at a final concentration of 10 ng/mL to the culture medium to induce tubulogenesis of the vascular endothelial cells. Soybean PC was also added at 10 μM concomitantly with VEGF. At 12 to 16 hours after the start of the culture, the cells were photographed under a microscope. In addition, Hoechst (Boehringer Ingelheim) was added to stain cell nuclei, and newly formed blood vessels were observed. The wells not containing the soybean PC were used as a control.
The same experiment as in Example 12 was performed using soybean PC and other 8 types of PCs. The PCs were classified as Group A or B as with Example 8. The PCs used were as follows (see Table 2).

intratumoral vessels = experiment: Phosphatidylcholine administration to lysophosphatidic acid receptor 4-deficient mice; format: in vivo, mouse
Description: Lysophosphatidic acid is enzymatically synthesized from lysophosphatidylcholine, which is produced by enzymatic decomposition of phosphatidylcholine. Considering this, there was a possibility that the newly discovered effects of phosphatidylcholine might be underlain by the mechanism that the administered phosphatidylcholine undergoes in vivo decomposition into lysophosphatidic acid, which activates a lysophosphatidic acid receptor and thereby produces the effects. However, the structural improvement of intratumoral vessels and the promotion of immune cell infiltration after phosphatidylcholine administration were not observed after lysophosphatidyicholine administration (see Reference Example 1). […] Therefore, the effects of phosphatidylcholine were proven not to be mediated by a lysophosphatidic acid receptor.

With `O=c1[nH]cc(F)c(=O)[nH]1` [5-FU] the “tumor volume (tumor growth) as compared with the control group” value (LLC cells [1]) was “tumor growth inhibition”.

`CCCCCCCCCCCCCCCC(=O)OC[C@H](COP(=O)([O-])OCC[N+](C)(C)C)OC(=O)CCCCCCCCCCCCC` [(1-palmitoyl-2-myristoyl) phosphatidylcholine] was tested, and the “Lymphocyte Infiltration” value (LLC cells [2]) was “yes” and the Vein-like morphological change [3] was “yes”.

In the case of `CCCCCCCC/C=C\CCCCCCCC(=O)O[C@H](COC(=O)CCCCCCCCCCCCCCC)COP(=O)([O-])OCC[N+](C)(C)C` [(1-palmitoyl-2-oleoyl) phosphatidylcholine], the “Lymphocyte Infiltration” value (LLC cells [2]) is reported as “yes” and the Vein-like morphological change [3] is reported as “yes”.

`CC/C=C\C/C=C\C/C=C\C/C=C\C/C=C\C/C=C\CCC(=O)OC[C@H](COP(=O)([O-])OCC[N+](C)(C)C)OC(=O)CC/C=C\C/C=C\C/C=C\C/C=C\C/C=C\C/C=C\CC` [Didocosahexaenoyl phosphatidylcholine, didocosahexaenoyl phosphatidylcholine] was tested, and the Vein-like morphological change [3] was “yes”.

With `CCCCC/C=C\C/C=C\CCCCCCCC(=O)OC[C@H](COP(=O)([O-])OCC[N+](C)(C)C)OC(=O)CCCCCCC/C=C\C/C=C\CCCCC` [Dilinoleoyl phosphatidylcholine, dilinoleoyl phosphatidylcholine] the “Lymphocyte Infiltration” value (LLC cells [2]) was “yes” and the Vein-like morphological change [3] was “yes”.

In the case of `CCCCCCCCCCCCCC(=O)OC[C@H](COP(=O)([O-])OCC[N+](C)(C)C)OC(=O)CCCCCCCCCCCCC` [Dimyristoyl phosphatidylcholine, dimyristoyl phosphatidylcholine], the “Lymphocyte Infiltration” value (LLC cells [2]) is reported as “yes” and the Vein-like morphological change [3] is reported as “yes”.

In the case of `CCCCCCCC(=O)OCC(COP(=O)([O-])OCC[N+](C)(C)C)OC(=O)CCCCCCC` (stereo not drawn) [Dioctanoyl phosphatidylcholine, dioctanoyl phosphatidylcholine], the “Lymphocyte Infiltration” value (LLC cells [2]) is reported as “yes” and the Vein-like morphological change [3] is reported as “yes”.

For `CCCCCCCC/C=C\CCCCCCCC(=O)OC[C@H](COP(=O)([O-])OCC[N+](C)(C)C)OC(=O)CCCCCCC/C=C\CCCCCCCC` [Dioleoyl phosphatidylcholine, dioleoyl phosphatidylcholine], the “Lymphocyte Infiltration” value (LLC cells [2]) was “yes” and the Vein-like morphological change [3] was “yes”.

With `CCCCCCCCCCCCCCCCCC(=O)OC[C@H](COP(=O)([O-])OCC[N+](C)(C)C)OC(=O)CCCCCCCCCCCCCCCCC` [Distearoyl phosphatidylcholine, distearoyl phosphatidylcholine] the “Lymphocyte Infiltration” value (LLC cells [2]) was “yes” and the Vein-like morphological change [3] was “yes”.

With phosphatidylcholine the immune cell infiltration (intratumoral vessels) was “promoted immune cell infiltration” and the “structure of intratumoral vessels” value (intratumoral vessels) was “improved the structure of intratumoral vessels”.

— patent US12447165B2, “Intratumoral vein-formation promoting agent” (OSAKA UNIVERSITY, priority 2016, dated 2025)
